Laboratory results as given in patent US20180360782A1, “METHOD OF MODULATING RIBONUCLEOTIDE REDUCTASE” (CASE WESTERN RESERVE UNIVERSITY, priority 2015, published 2018).
Like-named read-outs stand apart in the source and are kept apart here. Blank lines part the entries; values can stand above or below the molecule they belong to. Square brackets hold non-standard residues; d marks the D form. Peptide text beside a SMILES is read from it. ξ: configuration not given here. ξY = NC(Cc1ccc(O)cc1)C(=O)O; Sar = CNCC(=O)O

Experiments:
[1] = test system: MDA-MB-231 and HCT-116 cell lines; assay: Growth inhibition screening assay (In Cell IC50); assay type: cell-based, human; settings: 3 days with compound; for IC50: Homo sapiens, 72 h
Description: (§1) Cell were maintained in standard tissue culture media (RPMI1640, +10% fetal bovine serum, plus antibiotic) and grown in a standard humidified 5% CO2 incubator at 37° C. Cells were regularly tested using the MycoAlert detection kit (Lonza Biologics) and shown to be mycoplasma-free. Initial compound screening was performed using both MDA-MB-23 land HCT-116 cell lines. For moderate throughput screening (up to 120 drugs per experiment), cells were seeded into 96 well plates and allowed to attach overnight. The following day media was removed and replaced with fresh compound containing media. Each compound was tested against both cell lines at 3 concentrations; 1 μM, 10 μM and 50 μM, in duplicate. Cells were incubated with compound containing media for three days in a standard 5% CO2 tissue culture incubator. Cell growth was assessed after 3 days using the DNA dye binding assay, as originally described by LaBarca and Paigen. Relative growth was independently calculated for each cell line, based on DNA content from corresponding cells grown in control media plus diluent (DMSO). Additional growth inhibition experiments utilized either the DNA binding assay or the Promega CellTiter 96® (MTT reduction) assay, with similar results. For detailed growth inhibition assays, cells (1500-2500 depending on the growth characteristics of the cell line) were seeded in standard 96 well tissue culture plates and allowed to attach overnight. The following day media was removed and replaced with drug containing media. Each dose group consisted of 5 replicate wells, and results are reported a Relative Growth, calculated as DNA or MTT reduction per well, divided by the signal from untreated cells, both harvested 3 days after drug administration.

[2] = target: T1, hRR (hRRM1 and hRRM2) (Homo sapiens, UniProt P23921); assay: biochemical
T1 sequence (P23921 1-792): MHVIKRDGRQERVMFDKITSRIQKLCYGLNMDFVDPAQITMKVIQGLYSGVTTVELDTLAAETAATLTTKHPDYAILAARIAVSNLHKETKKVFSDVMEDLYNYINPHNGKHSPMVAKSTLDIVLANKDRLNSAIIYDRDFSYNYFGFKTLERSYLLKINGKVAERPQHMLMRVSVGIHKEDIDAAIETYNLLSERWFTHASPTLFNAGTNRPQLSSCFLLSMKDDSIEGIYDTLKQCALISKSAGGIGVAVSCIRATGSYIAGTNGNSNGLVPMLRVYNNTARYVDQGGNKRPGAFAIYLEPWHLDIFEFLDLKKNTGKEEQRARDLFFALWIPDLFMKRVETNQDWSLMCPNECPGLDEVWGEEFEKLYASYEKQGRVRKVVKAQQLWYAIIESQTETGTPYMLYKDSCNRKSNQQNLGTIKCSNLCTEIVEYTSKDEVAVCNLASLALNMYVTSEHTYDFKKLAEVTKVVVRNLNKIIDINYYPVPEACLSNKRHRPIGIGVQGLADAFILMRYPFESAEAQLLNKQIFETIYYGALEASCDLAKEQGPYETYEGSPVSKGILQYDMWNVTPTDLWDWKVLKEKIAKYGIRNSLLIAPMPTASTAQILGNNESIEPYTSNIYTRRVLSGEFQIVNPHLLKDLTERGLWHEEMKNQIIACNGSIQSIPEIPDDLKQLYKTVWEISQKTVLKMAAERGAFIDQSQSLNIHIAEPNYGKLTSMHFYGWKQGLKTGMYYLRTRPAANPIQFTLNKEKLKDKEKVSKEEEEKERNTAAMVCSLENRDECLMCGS
T1 sequence (P31350 1-389 partner): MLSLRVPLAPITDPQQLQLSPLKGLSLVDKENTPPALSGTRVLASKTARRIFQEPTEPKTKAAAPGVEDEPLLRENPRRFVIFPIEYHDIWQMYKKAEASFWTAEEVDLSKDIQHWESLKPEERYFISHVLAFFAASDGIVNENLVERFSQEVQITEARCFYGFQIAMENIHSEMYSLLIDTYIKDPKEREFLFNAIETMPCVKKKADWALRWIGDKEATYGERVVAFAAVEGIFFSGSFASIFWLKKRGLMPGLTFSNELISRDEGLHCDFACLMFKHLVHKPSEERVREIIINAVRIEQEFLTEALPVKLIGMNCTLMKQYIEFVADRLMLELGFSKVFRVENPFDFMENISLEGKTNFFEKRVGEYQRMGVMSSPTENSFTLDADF
Description: (§2) The buffer solution (50 mM HEPES at pH 7.6, 5% (v/v) glycerol, 0.1M KCl) and the hRRM2 protein in the buffer solution were prepared under deoxygenated conditions. Both solutions were taken into the glove box and FeNH4SO4 was dissolved in the buffer solution. 5 equivalents of Fe (II) per hRRM2 dimer from FeNH4SO4 (determined by Ferrozine assay) was added to the protein solution and incubated at 4° C. in the glove box. Upon removal of the protein from the glove box, freshly prepared O2-saturated buffer solution (50 mM HEPES at pH 7.6, 5% (v/v) glycerol, 0.1M KCl) was added. Excess iron was removed by S200 10/300 size exclusion chromatography. […] The reaction mixture was pre-incubated for 3 min at 37° C., and 30 μL aliquots were sampled at fixed time intervals after initiating the reaction. Reactions were quenched by immersion in a boiling water bath, cooling, and treatment with alkaline phosphatase. The product ^14-dADP that formed during the reaction was separated from substrate-ADP using boronate affinity chromatography. ^14-dADP was quantified by liquid scintillation counting using a Beckman LS6500 liquid scintillation counter.
(§3) Briefly, boronate chromatography was used to separate the product.

[3] = test system: select cancer cell lines; assay: Cellular IC50 of NSAAH library (Table 3); assay type: cell-based
Description: as §1

[4] = target: T1, hRR (hRRM1 and hRRM2); settings: read-out: Cell-Free IC50; NSAAH library against hRR
Description: as §2, §3

[5] = test system: MDA-MB-231, HCT116, A549 and Panc1 cell lines; assay: Detailed growth inhibition studies, median effect dose; assay type: cell-based; settings: Homo sapiens; for IC50: 72 h, read-out: median effect dose (Dm), growth inhibitory activity
Description: Cell were maintained in standard tissue culture media (RPMI1640, +10% fetal bovine serum, plus antibiotic) and grown in a standard humidified 5% CO2 incubator at 37° C. […] For moderate throughput screening (up to 120 drugs per experiment), cells were seeded into 96 well plates and allowed to attach overnight. The following day media was removed and replaced with fresh compound containing media. Each compound was tested against both cell lines at 3 concentrations; 1 μM, 10 μM and 50 μM, in duplicate. Cells were incubated with compound containing media for three days in a standard 5% CO2 tissue culture incubator. Cell growth was assessed after 3 days using the DNA dye binding assay, as originally described by LaBarca and Paigen. Relative growth was independently calculated for each cell line, based on DNA content from corresponding cells grown in control media plus diluent (DMSO). […] The following day media was removed and replaced with drug containing media.
Over 190 compounds were screened for their ability to inhibit growth and/or induce cell death in established cancer cell lines.

[6] = target: T2, RR (Homo sapiens, UniProt P23921); assay: In Vivo RR IC50 (Table 2); assay type: cell-based; settings: In Vivo RR IC50^b (μM)
T2 construct: endogenous in cells; host or cells: established human cancer cell lines (MDA-MB-231, HCT-116; also A549, Panc1)
T2 sequence (P23921 1-792): T1 sequence (P23921 1-792)
T2 sequence (P31350 1-389 partner): T1 sequence (P31350 1-389 partner)

Compound: CCCCCCCCCCCCCCCC(=O)N[C@@H](CCCCN)C(=O)N[C@@H](CCCCN)C(=O)OC
In Cell IC50 (μM) [1]: ne

IC50 [2]: 31.3 µM
Compound: Cc1c(-n2cc(-c3ccc4cc(O)ccc4c3)nn2)c(=O)n(-c2ccccc2)n1C
Cellular IC50 [3]: No cytotoxicity

Compound: CCCCCCCCCCCCCCNC(=O)[C@@H](N)CCN
In Cell IC50 (μM) [1]: ne

Compound: Nc1ccccc1C(=O)N/N=C/c1c(O)ccc2ccccc12
Cellular IC50 [3]: No cytotoxicity

Compound: CNCC(=O)N[C@@H](CCCNC(=N)N)C(=O)N[C@H](C(=O)NC(Cc1ccc(O)cc1)C(=O)N[C@H](C(=O)N[C@@H](Cc1cnc[nH]1)C(=O)O)C(C)C)C(C)C (stereo partly drawn) [compound 9] (H-[Sar]RV[ξY]VH-OH)
In Cell IC50 (μM) [1]: non-toxic

IC50 [2]: 13.2 µM
Compound: O=C1C=Cc2cc(C3=NC4C=CC=CC4S(=O)(=O)N3)c(=O)oc2C1 (stereo not drawn)
Cellular IC50 [3]: No cytotoxicity

IC50 [2]: 15.3 µM
Compound: O=C(Nc1ccccc1C(=O)O)c1ccc2ccccc2n1
Cellular IC50 [3]: No cytotoxicity

IC50 [3]: > 10 µM
Compound: O=[N+]([O-])c1ccc(N/N=C/c2c(O)ccc3ccccc23)cc1

Compound: CC(NCCCCCO)c1cc(OCc2ccccc2)cc(OCc2ccccc2)c1 (stereo not drawn)
In Cell IC50 (μM) [1]: non-toxic

IC50 [2]: 40.2 µM
Compound: O=c1oc(-c2ccccc2-c2ccccc2-c2nc3ccccc3c(=O)o2)nc2ccccc12
Cellular IC50 [3]: No cytotoxicity

IC50 [2]: 3.8 µM
Compound: O=C(O)c1ccccc1-c1ccccc1C(=O)c1ccc2ccccc2n1
Cellular IC50 [3]: No cytotoxicity

IC50 [2]: 8.1 µM
Compound: O=C(c1ccccc1O)n1cc(-c2c(O)ccc3ccccc23)nn1
Cellular IC50 [3]: No cytotoxicity

Compound: CCC(C)(C)c1ccc(OCCCCNC(=O)c2cc(Oc3ccc([N+](=O)[O-])cc3)c3ccccc3c2O)c(C(C)(C)CC)c1
In Cell IC50 (μM) [1]: ne^b

Compound: O=C(N/N=C/c1c(O)ccc2ccccc12)OCc1ccccc1
Cellular IC50 [3]: No cytotoxicity

Compound: CCOC(=O)C[C@@H](CC(=O)NCCN[C@H](C)c1ccc(O)c(C(=O)OC)c1)OC(C)=O
In Cell IC50 (μM) [1]: ne^b

IC50 [2]: 86.8 µM
Compound: Cc1ccc(C(=O)N/N=C/c2c(O)ccc3ccccc23)cc1
Cellular IC50 [3]: No cytotoxicity

IC50 [2]: 607 µM
Compound: OCc1ccccc1-n1cc(-c2ccc3cc(O)ccc3c2)nn1
Cellular IC50 [3]: No cytotoxicity

IC50 [4]: 122 µM
IC50 [3]: > 10 µM
Compound: O=S(=O)(N/N=C/c1c(O)ccc2ccccc12)c1ccccc1

IC50 [4]: 6.8 µM
Compound: Cc1ccc(S(=O)(=O)N/N=C/c2c(O)ccc3ccccc23)cc1
Cellular IC50 [3]: No cytotoxicity

Compound: Oc1ccc(CCn2cc(-c3ccc4cc(O)ccc4c3)nn2)cc1
Cellular IC50 [3]: No cytotoxicity

IC50 [2]: 269 µM
Compound: O=c1nc(-n2cc(-c3ccc4cc(O)ccc4c3)nn2)cc[nH]1
Cellular IC50 [3]: No cytotoxicity

IC50 [4]: 298 µM
Compound: CC1(C)C2CC(=O)C1C(CS(=O)(=O)N/N=C/c1c(O)ccc3ccccc13)C2 (stereo not drawn)
Cellular IC50 [3]: No cytotoxicity

Compound: OC(COc1ccc(OCC(O)CN2CCN(C3c4ccccc4-c4ccccc43)CC2)cc1)CN1CCN(C2c3ccccc3-c3ccccc32)CC1 (stereo not drawn) [compound 2]
IC50 [1]: 3 to 8 µM
IC50 [5]: 1 to 10 µM
inhibition at 10 µM ([5]; read-out: growth inhibition): ~100%

Compound: O=C(N/N=C/c1c(O)ccc2ccccc12)c1ccc([N+](=O)[O-])c(Cl)c1
Cellular IC50 [3]: No cytotoxicity

Compound: O=C(N/N=C/c1c[nH]c2ccc(O)cc12)c1ccccc1O
IC50 [3]: > 10 µM

IC50 [2]: 94.1 µM
IC50 [3]: > 10 µM
Compound: COc1ccc(C(=O)N/N=C/c2c(O)ccc3ccccc23)cc1

IC50 [3]: > 10 µM
Compound: Oc1ccc2ccccc2c1/C=N/NCc1ccccc1

Compound: Cc1cccc2c(/C=N/NC(=O)c3ccccc3O)c[nH]c12
Cellular IC50 [3]: No cytotoxicity

Compound: Oc1ccc2ccccc2c1/C=N/Nc1ccc(Br)cc1
IC50 [3]: > 10 µM

IC50 [3]: > 10 µM
Compound: CN(C)c1ccc(C(=O)N/N=C/c2c(O)ccc3ccccc23)cc1

Compound: CC(C)(NC(=O)CN1C(=O)c2ccccc2C1=O)C(=O)NCCCC[C@H](NC(=O)CC(O)(C(F)(F)F)C(F)(F)F)C(=O)O [compound 6]
IC50 [1]: 30 µM

Compound: O=C(N/N=C/c1c[nH]c2ccc([N+](=O)[O-])cc12)c1ccccc1O
Cellular IC50 [3]: No cytotoxicity

Compound: COc1ccc(Br)cc1C(=O)N/N=C/c1c(O)ccc2ccccc12
IC50 [3]: > 1 µM

Compound: CCCOc1ccc(C(=O)OCCN(CC)CC)cc1NS(=O)(=O)/C=C/c1ccccc1 [compound 8]
In Cell IC50 (μM) [1]: ne^b

Compound: O=[N+]([O-])c1ccc(S(=O)(=O)N/N=C/c2c(O)ccc3ccccc23)cc1
Cellular IC50 [3]: No cytotoxicity

Compound: O=S(=O)(Cc1ccccc1)N/N=C/c1c(O)ccc2ccccc12
Cellular IC50 [3]: No cytotoxicity

IC50 [4]: 5.3 µM
Compound: O=C(N/N=C/c1c(O)ccc2ccccc12)c1cccnc1
Cellular IC50 [3]: No cytotoxicity

IC50 ([6]; 1 μM, sub-column 1 μM): 0.674 µM
IC50 ([6]; 10 μM, sub-column 10 μM): 0.792 µM
IC50 [2]: 39.8 ± 0.9 µM
IC50 [1]: 0.06 to 2 µM
IC50 ([5]; set of four cell lines, 3 days): 1 to 10 µM
Compound: O=C(CCCCCCCCC(=O)N/N=C/c1c(O)ccc2ccccc12)N/N=C/c1c(O)ccc2ccccc12 [compound 4, N′1,N′10-bis((E)-(2-hydroxynaphthalenyl)methylene) decanedihydrazide]

IC50 [3]: > 10 µM
Compound: O=C(N/N=C/c1cc2ccccc2cc1O)c1ccccc1O

Compound: O=C(N/N=C/c1ccc2cc(O)ccc2c1)c1ccccc1O
IC50 [3]: > 10 µM

Compound: Nc1ccc(C(=O)N/N=C/c2c(O)ccc3ccccc23)cc1Cl
IC50 [3]: > 10 µM

Compound: Oc1ccc2cc(-c3cn(-c4ccc5[nH]ccc5c4)nn3)ccc2c1
Cellular IC50 [3]: No cytotoxicity

IC50 [2]: 687 µM
Compound: COc1cc(C(=O)N/N=C/c2c(O)ccc3ccccc23)ccc1O
Cellular IC50 [3]: No cytotoxicity

Compound: COc1cc(Br)ccc1C(=O)N/N=C/c1c(O)ccc2ccccc12
IC50 [3]: > 10 µM

Compound: CCOC(=O)C(NC(=O)CN[C@H]1CCCc2sccc21)C(=O)OCC
In Cell IC50 (μM) [1]: ne^b
